{"source": "patent US20140378408A1", "about": "“NUCLEOSIDE 5'-PHOSPHOROTHIOATE ANALOGUES AND USES THEREOF” (BAR-ILAN UNIVERSITY, an Israeli University, priority 2012, published 2014)", "key": {"[1]": {"test": "IV administration to mice, detection in blood by HPLC", "assay_type": "in vivo"}, "human chondrocyte cells": {"system": "human chondrocyte cells", "test": "Hydrolysis of extracellular ATP in the presence of human chondrocyte culture", "assay_type": "cell-based", "conditions": "100 μM each, 8 h, ATP alone 56%, without cells 18%", "experimental": "In this study, the metabolic hydrolysis of ATP was evaluated. […] Following incubation, the samples were collected and heated at 80° C. for 15 min and extracted with chloroform, applied onto an anion exchange cartridge, and freeze-dried. The resulting residue was analyzed by HPLC."}, "[2]": {"test": "ESR OH radical assay, Fe^2+/H2O2 Fenton system", "conditions": "N/A = minimal radical production exceeds 10%"}, "Aβ40-Cu^2+ aggregates [3]": {"target": "T1, Aβ40-Cu^2+ aggregates (Homo sapiens, UniProt P05067)", "T1 construct": "purchased GL-Biochem (Shanghai)", "test": "DLS, size reduction of Aβ40-Cu^2+ aggregates", "experimental": "PBS buffer, Aβ40, chelator, Zn(NO3)2, and Cu(NO3)2 solutions were filtered through a […] PVDF syringe filter. 496 μM Aβ40 solution in 10 mM PBS (pH 7.4) and 2 mM Zn(NO3)2 solution were mixed to obtain 200 μM Aβ40-Zn^2+ (1:1 ratio) of a cloudy solution. Similarly, 2 mM Cu(NO3)2 solution was added to 496 μM Aβ40 in 10 mM PBS (pH 6.6). Aβ40-Zn^2+/Cu^2+ (10 μl) solution was transferred to Eppendorf tubes containing 10 mM PBS buffer (64 or 67 μl) followed by the addition of 3 and 6 eq of 2 mM nucleotide (6 or 3 μl) solution and incubation for 45 min at RT. The resulting mixture was incubated for another 30 min at RT and DLS data were then collected in a 70 μl disposable cuvette. The final sample concentrations were 25 μM Aβ40, 25 μM Zn^2+ or Cu^2+, and 150 or 75 μM nucleotide.\nMonomeric Aβ40 was incubated with either Cu^2+ or Zn^2+ for 45 min to form a 1:1 peptide metal-ion complex. […] For the Aβ40-Zn^2+ particles the instrument readings indicated a different size distribution. […] We evaluated the capacity of the phosphorothioate analogues to dissolve Aβ40-Cu^2+ or Zn^2+ aggregates, as compared to EDTA and clioquinol known for their ability to dissolve Aβ-M^2+ aggregates (Ritchie et al., 2003; Huang et al., 1997). The reduction of dH of Aβ40-Cu^2+ aggregates by EDTA, clioquinol, or tested compounds was compared to the dH of Aβ-Cu^2+ aggregate itself (FIG. 5A). In addition, the efficacy of the chelators ATP-γ-S, ADP-β-S, APCPP-γ-S and GDP-β-S to resolubilize Aβ40-Cu^2+ and Aβ40-Zn^2+ is described in FIGS. 5B and 5C relative to EDTA and clioquinol. EDTA efficiency in reducing Aβ particle size is considered as 100%."}, "Aβ40-Zn^2+ aggregates": {"target": "T2, Aβ40-Zn^2+ aggregates (Homo sapiens, UniProt P05067)", "T2 construct": "purchased GL-Biochem (Shanghai)", "T2 sequence (P05067 672-711 limits assumed)": "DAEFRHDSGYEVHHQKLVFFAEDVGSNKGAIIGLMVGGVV", "test": "TEM, size reduction of Aβ40-Zn^2+ aggregates", "conditions": "6 eq, 7 h; aggregates 100 nm to 2.5 μm before", "experimental": "(§1) TEM sample was prepared from 200 μM Aβ-M^2+ 1:1 solution (pH 7.4 or 6.6 for Aβ40-Zn^2+ or Aβ40-Cu^2+, respectively) incubated in a rotary shaker for 9 days at RT. A cloudy mixture with massive sediments was obtained. TEM samples were prepared by diluting the stock solutions with PBS to a concentration of 25 μM with or without APCPP-γ-S. In this way four samples were obtained: (i) 25 μM Aβ40-Cu^2+; (ii) 25 μM Aβ40-Cu^2+ containing 150 μM APCPP-γ-S; (iii) 25 μM Aβ40-Zn^2+; and (iv) 25 μM Aβ40-Zn^2+ containing 150 μm APCPP-γ-S. The mixtures were incubated in a rotary shaker for 7 h and after vortexing, a sample was transferred to a gold grid, for Aβ40-Cu^2+, or a copper grid for Aβ40-Zn^2+. The wet grid was left to dry at RT overnight.\n(§2) To validate the DLS data indicating the efficiency of APCPP-γ-S, we monitored the dissolution of Aβ40-M^2+ aggregates in the presence of APCPP-γ-S by TEM. Aβ40-Cu^2+ and Aβ40-Zn^2+ 1:1 complexes were incubated for 9 days at RT, resulting in a significant sediment. Aβ40-Cu^2+ aggregates of 2.5 μm in diameter (FIG. 6A) and Aβ40-Zn^2+ aggregates of different sizes from 100 nm to 2.5 μm (FIG. 6C) were observed by TEM measurements. APCPP-γ-S (6 eq) was then added and the mixture was incubated for 7 h."}, "Aβ40-Cu^2+ aggregates [4]": {"target": "T1, Aβ40-Cu^2+ aggregates", "test": "TEM, size reduction of Aβ40-Cu^2+ aggregates", "conditions": "6 eq, 7 h; aggregates 2.5 μm before", "experimental": "as §1, §2"}, "Aβ40-Cu^+ complex": {"target": "T3, Aβ40-Cu^+ complex (Homo sapiens, UniProt P05067)", "T3 construct": "purchased GL-Biochem (Shanghai)", "T3 sequence (P05067 672-711, one chain of several)": "as the sequence (P05067 672-711 limits assumed) above", "test": "Re-solubilization of Aβ40-Cu^+ aggregates monitored by 1H-NMR", "conditions": "6 eq, pD 7.8", "experimental": "^1H-NMR spectrum of 0.25 mM Aβ40 (concentration determined by UV) in 10 mM TRIS-d11 (500 μl, pD 11) was measured at 278 K. The pD was adjusted to 7.8 by the addition of 0.1 N DCl (33 μl), and ^1H-NMR spectrum was measured (700 MHz, 80 scans), as well as after each of the following additions: (A) 8.3 mM Cu^+ (15 μl, 1 eq); (B) 6 mM compound 7 (21 μl, 1 eq); (C) 6 mM compound 7 (42 μL, 3 eq); (D) of 6 mM APCPP-γ-S (62.4 μl, 6 eq); (E) of 6 mM APCPP-γ-S (62.4 μl, 9 eq). At the end of the titration, the acetonitrile concentration was 2% (v/v) in 735.8 μl, pD 8.4.\nAPCPP-γ-S, the most promising chelator identified here, was used also to resolubilize Aβ40-Cu^+ aggregates. This process was monitored by ^1H-NMR similar to that described above for Aβ28. First, the ^1H-NMR spectrum of 0.25 mM Aβ40 monomer at 278 K, pD 11, was measured (FIG. 7a), after adjustment of Aβ40 solution pD to 7.8 the signals shifted and broadened (FIG. 7b). Upon addition of 1 eq 8.3 mM Cu(CH3CN)4PF6 the signals dramatically further broadened (FIG. 7c)."}}, "data": [{"smiles": "Nc1ncnc2c1ncn2[C@@H]1O[C@H](COP(O)(=S)OP(=O)(O)C(Cl)(Cl)P(=O)(O)O)[C@@H](O)[C@H]1O", "note": "(single isomer, unassigned) [APPCCl2P-α-S, adenosine 5′-[Pα-thio]-β,γ-(dichloromethylene)triphosphate]", "values": [{"measurement": "detection in blood after IV administration", "setting": "[1]", "value": "could be detected in blood (by HPLC) even after 3 h"}]}, {"smiles": "Nc1ncnc2c1ncn2[C@@H]1O[C@H](COP(O)(=S)OP(=O)(O)C(Cl)(Cl)P(=O)(O)O)[C@@H](O)[C@H]1O", "note": "(single isomer, unassigned; isomer a) [APPCCl2P-α-S (isomer A), adenosine 5′-[Pα-thio]-β,γ-(dichloromethylene)triphosphate]", "values": [{"measurement": "degradation of ATP on co-application", "setting": "human chondrocyte cells", "value": 22, "unit": "%"}]}, {"smiles": "Nc1ncnc2c1ncn2[C@@H]1O[C@H](COP(=O)(O)OP(O)(O)=S)[C@@H](O)[C@H]1O", "note": "[ADP-β-S, adenosine 5′-[β-thio]diphosphate, reference compound]", "values": [{"measurement": "IC90", "setting": "[2]", "value": "210 ± 1", "unit": "µM"}, {"measurement": "fold better than GDP-β-S in reducing dH of Aβ40-Cu^2+ aggregates", "setting": "Aβ40-Cu^2+ aggregates [3]", "value": 5.4, "unit": "fold"}]}, {"smiles": "Nc1ncnc2c1ncn2[C@@H]1O[C@H](COP(=O)(O)CP(=O)(O)OP(O)(O)=S)[C@@H](O)[C@H]1O", "note": "[APCPP-γ-S, adenosine 5′-[Pγ-thio]-α,β-methylenetriphosphate]", "values": [{"measurement": "IC90", "setting": "[2]", "value": "211 ± 7", "unit": "µM"}, {"measurement": "dH (particle size) of Aβ40-Cu^2+ after chelator", "setting": "Aβ40-Cu^2+ aggregates [3]; aggregate alone 1836 nm, 25 μM Aβ40-Cu^2+, pH 6.6", "value": 64, "unit": "nm"}, {"measurement": "aggregate size after addition", "setting": "Aβ40-Zn^2+ aggregates", "value": "less than 500 nm"}, {"measurement": "aggregate size after addition", "setting": "Aβ40-Cu^2+ aggregates [4]", "value": "less than 250 nm"}, {"measurement": "effect on Aβ40-Cu^+ 1H-NMR spectrum", "setting": "Aβ40-Cu^+ complex", "value": "all signals reappeared"}]}]}
